Reference: patent US6958324B2, “Inosine compounds and their use for treating or preventing an inflamation or a reperfusion disease” (Inotek Pharmaceuticals Corporation, priority 1998, dated 2005)
Marks after values point to notes of the source that are not given here.

Columns and labels:
DBA/1J mice [1] = assay: Collagen-induced arthritis: chemokine and cytokine levels in paws; format: in vivo; details: 200 mg/kg/day gavage, 24 days after second collagen injection
Procedure: (§1) Mice were evaluated daily for arthritis by using a macroscopic scoring system ranging from 0-4 (0=no signs of arthritis, 1=swelling or redness of the paw or one digit, 2=two joints involved, 3=more than 2 joints involved, 4=severe arthritis of the entire paw). The arthritic index for each mouse was calculated by adding the four scores of the individual paws. […] At study termination, paws were removed from all animals in each treatment group and randomly assigned to MPO, MDA or chemokines/cytokine measurements.
The effect of 5′-IMS on the levels of the chemokine MIP-1α and the cytokines 1L-12 and TNF-α in paws of DBA/1J mice treated with subdermal injections of collagen to induce arthritis was studied. Gavage treatment with 5′-IMS (100 or 200 mg/kg/day, BID) commenced on the day of the second collagen injection and paws were taken 24 days later and homogenized for analysis. […] Data are expressed as mean ±SEM from n=10 animals. […] Accordingly, 5′-IMS, an illustrative inosine compound, is useful for treating or preventing an inflammation disease, particularly arthritis, in a patient.

DSS mice [2] = assay: DSS colitis, inosine versus 5′-IMS at 50, 100 and 300 μmoles/kg/day; format: in vivo; details: for protection against colonic shortening / protection against visible histological damage: 50, 100 and 300 μmoles/kg/day, vs vehicle treated DSS animals; for dose at which colonic MDA levels were reduced: first statement ('For example'); for dose at which MDA levels were reduced (second statement, 'Similarly'): second statement of b313
Description: The effect of various doses (50, 100 and 300 μmoles/kg/day) inosine and IMS on the outcome of DSS (dextran sodium sulfate) colitis in mice. Colonic length, gross histologic score, colonic MDA content and colonic MPO content have been determined. N=10 animals per experimental groups. *p<0.05 and **p<0.01 indicates significant improvements in drug treated DSS animals, when compared to vehicle treated DSS animals. Mean +SEM are presented, except for histological scores, which are presented as medians.
Significant improvements in 5′-IMS treated DSS animals was observed as compared to vehicle treated DSS animals. Mean ±SEM are shown, except for the histological scores, which are presented as medians.

DBA/1J mice [3] = assay: Collagen-induced arthritis: MPO and MDA levels in paws; format: in vivo; details: 100 or 200 mg/kg/day, BID, gavage; paws 24 days after second collagen injection
Procedure: as §1
The effect of 5′-IMS on the levels of MPO and MDA in paws of DBA/1J mice treated with subdermal injections of collagen to induce arthritis was studied. Gavage treatment with 5′-IMS (100 or 200 mg/kg/day, BID) commenced on the day of the second collagen injection and paws were taken 24 days later and homogenized for MPO and MDA measurements. Data are expressed as mean ±SEM from n=10 animals. […] Accordingly, 5′-IMS, an illustrative inosine compound, is useful for treating or preventing an inflammation disease, particularly arthritis, in a patient.

DBA/1J mice [4] = assay: Collagen-induced arthritis: incidence and severity; format: in vivo
Procedure: The effect of 5′-IMS in a murine model system of collagen-induced arthritis was studied. Male DBA/1J mice were injected intradermally on day 1 with 0.1 mL of an emulsion of bovine type II collagen plus complete Freunds's adjuvant (CFA). A second injection was administered on day 21. Treatment with 5′-IMS (100 or 200 mg/kg/day, BID) per gavage was begun on the day of the second collagen/CFA injection and continued throughout the study, which was terminated on day 45 (24 days after the second injection).
as §1
Arthritis was induced in DBA/1J mice by two 100 μL sub-dermal injections of a 1:1 mixture of bovine collagen type II (1 mg/mL) and complete Freund's adjuvant (1 mg/mL) 21 days apart. Gavage treatment with 5′-IMS (100 or 200 mg/kg/day, BID) commenced on the day of the second injection. […] Statistical analysis was performed by Student's t-test or fisher's exact test as appropriate. […]

BALB/c mice = assay: LPS-induced lethality (survival) in mice; format: in vivo; details: 100 mg/kg 30 min before 70 mg/kg i.p. LPS; 24-96 h; p<0.05 vs vehicle
Procedure: Because inosine skewed the cytokine response towards an anti-inflammatory profile, the ability of inosine to decrease LPS-induced lethality in a murine model system was investigated. BALB/c mice were pretreated with drug vehicle (physiologic saline) or 100 mg/kg inosine 30 min before the injection of 70 mg/kg of i.p. LPS. Survival was recorded at 24, 48, 72, and 96 h after the LPS injection. Results from the summary of two different experiments are shown. N=16 animals in each group. Inosine improved survival rate at 24-96 h (p<0.05). Therefore, inosine conferred significant protection in this endotoxemic model. Thus, inosine is useful for treating or preventing an inflammation disease or a reperfusion disease.

[5] = system: peritoneal macrophages stimulated with LPS/IFN-γ; assay: IL-12 and TNF production by stimulated peritoneal macrophages exposed to inosine; format: cell-based
Procedure: To determine the effect of inosine on inflammatory cytokine production, stimulated macrophages were exposed to inosine at 0 to 1000 μM, after which production of cytokines IL-12 and TNF was measured.

STZ diabetic mice = assay: Streptozotocin-induced diabetes: blood glucose, diabetes incidence, pancreatic insulin content; format: in vivo
Procedure: The effect of inosine was in a […] model of streptozotocin-induced diabetes was examined. Mice were treated with streptozotocin (40 mg/kg in citrate buffer) or vehicle (citrate buffer) i.p. for 5 consecutive days to induce diabetes. Blood glucose was monitored over the following 21 days using a one-touch blood glucose meter (Lifescan). […] Hyperglycemia was defined as non-fasting blood glucose level higher than 200 mg/dL. Mice were treated simultaneously with streptozotocin injection throughout the 21 days of the experiments and with vehicle or inosine (100 mg/kg oral gavage, twice a day). Samples of pancreas were removed on day 21 and weighed before being placed into 6 mls of acid ethanol (23:7:0.45 ethanol:dH2O:HCl) and homogenized. The pancreas samples were incubated for 72 h at 4° C. before being centrifuged. The insulin content of the supernatant was then determined using an ELISA assay.
An “*” indicates significant reduction of circulating glucose or diabetes incidence in the inosine-treated streptozotocin rats when compared to vehicle-treated streptozotocin rats (p<0.05).
An “*” in TABLE 7 indicates significant decreases in insulin content in response to streptozotocin when compared to control, and a “#” indicates significant preservation of pancreatic insulin content in the inosine-treated streptozotocin rats (p<0.05). Pancreatic insulin content at 21 days in streptozotocin diabetic mice receiving vehicle or inosine treatment.

male BALB/c mice = assay: Plasma cytokine levels after LPS challenge in endotoxemic mice; format: in vivo; details: 100 mg/kg i.p. 30 min before LPS 70 mg/kg i.p.
Procedure: To determine whether inosine inhibits inflammatory cytokine release in vivo, male BALB/c mice were injected with inosine (100 mg/kg; i.p.) followed 30 minutes later by an i.p. injection of LPS (70 mg/kg). Plasma levels of the different cytokines were measured at various times (90 mm 2 h, 4 h, and 8 h) after the LPS challenge.
The results are shown in FIGS. 1A-E. Data are mean ±SEM of n=8 mice. The asterisk in the figure indicates p<0.05. […] Inosine was also shown to augment IL-10 (FIG. 1E) production in endotoxemic mice. […] Inosine inhibits the production of proinflammatory cytokines, but also potentiates the formation of the anti-inflammatory IL-10. Accordingly, inosine is useful for treating or preventing an inflammation disease or a reperfusion disease.

DSS mice [6] = assay: DSS-induced inflammatory bowel disease model, inosine treatment; format: in vivo; details: 5% DSS 10 days, inosine 200 mg/kg/day orally
Procedure: The effect of inosine in a mouse model of inflammatory disease was examined. Inosine was administered (oral administration, 100 mg/kg, 2 times a day), in a mouse model of inflammatory bowel disease induced by dextran sulfate solution (DSS). This system is well-characterized and is considered a reliable model of inflammatory bowel disease. Efficacy of a pharmaceutical compound in this model is taken as evidence that the compound is likely to be effective in human beings (Sasaki et al., Scand. J. Immunol. 51:23-8,2000; Gaudio et al, Dig. Dis. Sci. 44:1458-75, 1999; Murthy et al., Aliment Pharmacol. Ther. 13:251-60, 1999; Kimura et al., Arzneimittelforschung 48:1091-96, 1998; Dieleman et al., Scand. J Gastroenterol. Suppl. 223:99-104, 1997).
Symptoms associated with the DSS model were induced as follows. Mice were patiented to a drinking water containing 5% DSS for 10 days, in the presence (n=10) or absence (n=10) of inosine treatment (200 mg/kg/day, orally). At the end of 10 days, animals were evaluated for the incidence of bloody diarrhea, for colon shortening, and colon histopathology. Colonic myeloperoxidase (MPO) and malondialdehyde (MDA) levels were measured. These parameters provide a good cross-section of the functional and inflammatory changes associated with the current model of inflammatory bowel disease.
Significant protective effect of inosine in the presence of DSS is indicated as *p<0.05, when compared to the values with DSS alone in the absence of inosine.

[7] = day 0, inosine 100 mg/kg oral gavage twice a day

SMILES: O=S(=O)(O)OC[C@H]1O[C@@H](n2cnc3c(O)ncnc32)[C@H](O)[C@@H]1O [5′-IMS, inosine 5′-monosulfate]
- levels of MIP-1α in paws (DBA/1J mice [1]): significantly reduced
- levels of TNF-α in paws (DBA/1J mice [1]): significantly reduced
- IL-12 levels in paws (DBA/1J mice [1]; p=0.09): tended to reduce
- protection against colonic shortening (DSS mice [2]): provided significant protection
- protection against visible histological damage (DSS mice [2]): provided significant protection
- dose at which colonic MDA levels were reduced (DSS mice [2]): 50 µmol/kg/day
- dose at which MDA levels were reduced (second statement, 'Similarly') (DSS mice [2]): 50 µmol/kg/day
- lipid peroxidation (reflected by MDA) in joints (DBA/1J mice [3]): profoundly reduced
- neutrophil infiltration (reflected by MPO concentration) in joints (DBA/1J mice [3]): profoundly reduced
- severity of arthritis (DBA/1J mice [4]; 100 or 200 mg/kg/day, BID, gavage): significantly reduced
- prevalence of arthritis (DBA/1J mice [4]; both dosing regimens (100 or 200 mg/kg/day, BID, gavage), day 24 post second collagen injection, reduced from 90%): 25%

SMILES: OC[C@H]1O[C@@H](n2cnc3c(O)ncnc32)[C@H](O)[C@@H]1O [Inosine, inosine]
- survival rate (BALB/c mice): improved
- IL-12 ([5]; Inosine 10 μM, control 6.84 ± 0.39): 5.9 ± 0.19 ng/mL
- TNF ([5]; Inosine 10 μM, control […] ± 1.89): 10.08 ± 1.3 ng/mL
- IL-12 ([5]; Inosine 30 μM): 5.1 ± 0.14 ng/mL
- TNF ([5]; Inosine 30 μM): 8.38 ± 0.14 ng/mL
- IL-12 ([5]; Inosine 100 μM): 4.46 ± 0.62 ng/mL
- TNF ([5]; Inosine 100 μM): 7.61 ± 0.33 ng/mL
- IL-12 ([5]; Inosine 300 μM): 4.94 ± 0.06 ng/mL
- TNF ([5]; Inosine 300 μM): 5.45 ± 0.52 ng/mL
- IL-12 ([5]; Inosine 1000 μM): 4.34 ± 0.39 ng/mL
- TNF ([5]; Inosine 1000 μM): 5.62 ± 0.88 ng/mL
- Pancreatic insulin content (STZ diabetic mice; 21 days, inosine treated, STZ vehicle 6 ± 1, control 68 ± 11): 21 ± 4# ng insulin/mg protein
- Diabetes Incidence (STZ diabetic mice; [7]): 0%
- Mean Blood Glucose (STZ diabetic mice; [7]): 95 ± 4 mg/dL
- Median Blood Glucose (STZ diabetic mice; [7]): 96 mg/dL
- Diabetes Incidence (STZ diabetic mice; day 7, inosine 100 mg/kg oral gavage twice a day, STZ vehicle 8): 0%
- Mean Blood Glucose (STZ diabetic mice; day 7, inosine 100 mg/kg oral gavage twice a day, STZ vehicle 137 ± 7): 112 ± 6* mg/dl
- Median Blood Glucose (STZ diabetic mice; day 7, inosine 100 mg/kg oral gavage twice a day, STZ vehicle 146): 117* mg/dl
- Diabetes Incidence (STZ diabetic mice; day 21, inosine 100 mg/kg oral gavage twice a day, STZ vehicle 67): 25* %
- Mean Blood Glucose (STZ diabetic mice; day 21, inosine 100 mg/kg oral gavage twice a day, STZ vehicle 231 ± 15): 152 ± 20* mg/dl
- Median Blood Glucose (STZ diabetic mice; day 21, inosine 100 mg/kg oral gavage twice a day, STZ vehicle 260): 130* mg/dl
- protection against colonic shortening (DSS mice [2]): not
- protection against visible histological damage (DSS mice [2]): not
- dose at which colonic MDA levels were reduced (DSS mice [2]): 100 µmol/kg/day
- dose at which MDA levels were reduced (second statement, 'Similarly') (DSS mice [2]): 300 µmol/kg/day
- production of TNF-α (plasma) (male BALB/c mice; FIG. 1A): suppress
- production of IL-12 (plasma) (male BALB/c mice; FIG. 1B): suppress
- production of IFN-γ (plasma) (male BALB/c mice; FIG. 1C): suppress
- production of MIP-1α (plasma) (male BALB/c mice; FIG. 1D): suppress
- IL-10 production (plasma) (male BALB/c mice; FIG. 1E): augment
- Gut histological damage (1-4 scale) (DSS mice [6]; DSS alone 3.6 ± 0.4): 1.2 ± 0.4*
- Gut malondialdehyde levels (DSS mice [6]; DSS alone 3.7 ± 0.8): 2.1 ± 0.5* nmol/mg protein
- Colonic length (DSS mice [6]; DSS alone 4.2 ± 0.1, in cm (unit assumed)): 5.1 ± 0.1*
- Weight loss of the animals at 10 days (DSS mice [6]; DSS alone 20 ± 2): 13 ± 1* %
- Incidence of rectal bleeding (DSS mice [6]; DSS alone 90): 20* %
- Gut myeloperoxidase levels (DSS mice [6]; DSS alone 296 ± 87): 88 ± 14* nU/mg protein
